Test results published in US20230165872A1, “COMBINATION OF BCMA-DIRECTED T CELL THERAPY AND AN IMMUNOMODULATORY COMPOUND” (Juno Therapeutics, Inc., priority 2020, published 2023).

How the values were obtained:
Assay type in all cases: cell-based, human
RPMI-8226 target cells [1] = assay: Rechallenge with RPMI-8226 after concurrent compound treatment during chronic stimulation (cytolysis, cytokines)
Experimental: Cryofrozen anti-BCMA CAR T cells, produced substantially as described in Example 1 and formulated at a 1:1 ratio of CD4+ and CD8^+ T cells, were thawed. To subject cells to chronic stimulation conditions, the anti-BCMA CAR+ T cells were stimulated with 50 μg BCMA conjugated beads (diameter about 4.5 μm from a 50 μg/ml BCMA-conjugated bead composition, generated as described in Example 2) at a ratio of T cells to beads of 1:1 in the presence or absence of Compound A (iberdomide, (S)-3-[4-(4-morpholin-4-ylmethyl-benzyloxy)-1-oxo-1,3-dihydro-isoindol-2-yl]-piperidine-2,6-dione) (1 nM or 10 nM), Compound B ((S)-4-(4-(4-(((2-(2,6-dioxopiperidin-3-yl)-1-oxoisoindolin-4-yl)oxy)methyl)benzyl)piperazin-1-yl)-3-fluorobenzonitrile) (0.1 nM or 1 nM), or DMSO vehicle control. The cells were then incubated at 37° C., 5% CO2 for 7 days.
CAR T cells that had been stimulated for 7 days with cultured with 50 μg BCMA-coated magnetic beads concurrently in the presence of the cell immunomodulatory compound were washed free of compound and cells were debeaded. The anti-BCMA CAR T cells that had been stimulated for 7 days with BCMA-conjugated beads in the presence of the compounds were co-cultured with RPMI-8226 target cells (labeled with NucLightRed as described in Example 2) at a 1:1 (effector:target) ratio. Killing activity was monitored over 200 hours by measuring NucLightRed (NLR)-positive target cells. The total cell number of NLR-expressing RPMI targets cells was determined by normalizing cell number over time to the number of cells at the initiation of the co-culture (t=0) for each respective condition.
For cytokine measurements, cell-free supernatants were collected from the cytolytic assay described above 24 hours after plating. Cytokine levels of IFNg, IL-2, and TNFalpha (TNFα) was measured in the supernatant.
Cryofrozen anti-BCMA CAR T cells, produced substantially as described in Example 1 and formulated at a 1:1 ratio of CD4+ and CD8+ T cells, were thawed. […] The cells were then incubated at 37° C., 5% CO2 for 7 days.
Cytolytic activity was assessed using OPM-2 and RPMI-8226 BCMA expressing target cells transduced with NucLight Red, a red fluorescent protein detectable by microscopy, to allow for measurement of target cell death. Anti-BCMA CAR T cells that had been stimulated for 7 days with BCMA-conjugated beads in the presence of the compounds were co-cultured with RPMI-8226 target cells at a 0.3:1 (effector:target) or 1:1 ratio. Cultures were incubated at 37° C., 5% CO2, and images were taken every 2 hours over 5-7 days with an Essen IncuCyte Zoom live-cell analysis system to track NucLightRed-positive target cells.
For cytokine measurements, cell-free supernatants were collected from the cytolytic assay described above 24 hours after plating. Cytokine levels were measured using IFNg, IL-2, and TNFalpha Meso Scale Discovery cytokine kit (Mesoscale) according to manufacturer instructions. The data was analyzed using GraphPad Prism to calculate absolute changes in cytokine relative to the DMSO vehicle control.

OPM2 target cells = assay: Acute co-culture cytokine secretion of anti-BCMA CAR T cells with OPM2; conditions: OPM2, E:T 1:1, 24 hours, 0.01-10,000 nM, FIG. 2B
Experimental: Anti-tumor effects of anti-BCMA CAR T cells, alone and in combination with cell immunomodulatory compounds Compound A (iberdomide, (S)-3-[4-(4-morpholin-4-ylmethyl-benzyloxy)-1-oxo-1,3-dihydro-isoindol-2-yl]-piperidine-2,6-dione) or Compound B ((S)-4-(4-(4-(((2-(2,6-dioxopiperidin-3-yl)-1-oxoisoindolin-4-yl)oxy)methyl)benzyl)piperazin-1-yl)-3-fluorobenzonitrile), were assessed in two different BCMA-expressing target multiple myeloma cell lines RPMI-8226 or OPM-2. Anti-BCMA CAR+ T cells were generated as described in Example 1.
The anti-BCMA CAR-expressing T cells were incubated with target cells, RPMI 8226 (BCMA^med human multiple myeloma cell line) or OPM2 cells (BCMA^med human multiple myeloma cell line) target cells, at an E:T ratio of 1:1. The co-culture incubation with target cells was carried out in the presence of Compound A (0.01 nM, 0.1 nM, 1 nM, 10 nM, 100 nM, 1000 nM, or 10,000 nM) or Compound B (0.01 nM, 0.1 nM, 1 nM, 10 nM, 100 nM, 1000 nM, or 10,000 nM).
Cytokine secretion of IL-2, TNFα and IFN-gamma cytokines from cell culture supernatant of the co-cultures after 24 hours of incubation with targets cells was determined. Co-culture of anti-BCMA CAR+ T cells with Compound A enhanced the CAR T cytokine production both against RPMI-8226 target cells (FIG. 2A) and OPM2 target cells (FIG. 2B).

RPMI-8226 target cells [2] = assay: Rescue: rechallenge of chronically stimulated anti-BCMA CAR T cells with RPMI-8226 in the presence of compound
Experimental: Anti-BCMA CAR-expressing T cells, produced as described in Example 1, were stimulated with 50 μg BCMA conjugated beads (diameter about 4.5 μm from a 50 μg/ml BCMA-conjugated bead composition) substantially as described in Example 3 to induce chronic stimulation (to produce hypofunctional, exhausted T cells). After the chronic stimulation, the CAR-T cells were rechallenged with RPMI-8226 target cells (labeled with NucLightRed as described in Example 2) at a 1:1 (effector:target) ratio in the presence of (rescued) with Compound A (iberdomide, (S)-3-[4-(4-morpholin-4-ylmethyl-benzyloxy)-1-oxo-1,3-dihydro-isoindol-2-yl]-piperidine-2,6-dione) (1 nM or 10 nM), Compound B ((S)-4-(4-(4-(((2-(2,6-dioxopiperidin-3-yl)-1-oxoisoindolin-4-yl)oxy)methyl)benzyl)piperazin-1-yl)-3-fluorobenzonitrile) (0.1 nM or 1 nM), or DMSO vehicle control.
Killing activity and cytokine production were assessed as described in Example 3.
Studies were undertaken to determine whether Compound A (iberdomide, (S)-3-[4-(4-morpholin-4-ylmethyl-benzyloxy)-1-oxo-1,3-dihydro-isoindol-2-yl]-piperidine-2,6-dione) rescued anti-BCMA CAR T cell function following chronic stimulation. To directly stimulate via CAR engagement to induce chronic stimulation of cells, anti-BCMA CAR T cells were stimulated with BCMA conjugated beads (diameter about 4.5 μm from a 50 μg/ml BCMA-conjugated bead composition, generated as described in Example 9) at a ratio of T cells to beads of 1:1. The cells were then incubated at 37° C., 5% CO2 for 7 days.
Cultures were incubated at 37° C., 5% CO2, and images were taken every 2 hours over 5-7 days with an Essen IncuCyte Zoom live-cell analysis system to track NucLightRed-positive target cells.

Structure (SMILES): O=C1CC[C@H](N2Cc3c(OCc4ccc(CN5CCOCC5)cc4)cccc3C2=O)C(=O)N1 [Compound A, (S)-3-[4-(4-morpholin-4-ylmethyl-benzyloxy)-1-oxo-1,3-dihydro-isoindol-2-yl]-piperidine-2,6-dione]
- cytolytic activity after long-term stimulation in the presence of compound (RPMI-8226 target cells [1]; Example 7: E:T 0.3:1, lenalidomide 1000 nM, Compound A 1 or 10 nM, FIG. 9A): increased cytolytic activity
- production of IFN-gamma (RPMI-8226 target cells [1]; Example 7: supernatant at 24 hours, relative to DMSO, FIG. 9B): increased production
- production of IL-2 (RPMI-8226 target cells [1]; Example 7: supernatant at 24 hours, relative to DMSO, FIG. 9C): increased production
- production of TNF-alpha (RPMI-8226 target cells [1]; Example 7: supernatant at 24 hours, relative to DMSO, FIG. 9D): increased production
- CAR T cytokine production (IL-2, TNFα, IFN-gamma in supernatant) (OPM2 target cells): enhanced
- rescue of chronically activated CAR T cells (RPMI-8226 target cells [2]; Example 4: Compound A 1 or 10 nM, Compound B 0.1 or 1 nM during re-challenge): able to rescue chronically activated CAR T cells to improve functionality
- cytolytic activity, compound present during re-challenge (RPMI-8226 target cells [2]; Example 8: E:T 0.3:1, Compound A 1 nm or 10 nM, versus no compound, FIG. 10A): improvement in cytolytic activity
- production of IFN-gamma (RPMI-8226 target cells [2]; Example 8: supernatant at 24 hours, FIG. 10B): increased production
- production of IL-2 (RPMI-8226 target cells [2]; Example 8: supernatant at 24 hours, FIG. 10C): increased production
- production of TNF-alpha (RPMI-8226 target cells [2]; Example 8: supernatant at 24 hours, FIG. 10D): increased production
